What is called IC50 is the concentration needed to halve the response being measured. The low end stands for greater potency, the high end for weaker potency.

Where a name gives a salt, the structure may show the parent alone.

One experiment deals with T1, menin and MLL (menin, Flag tagged; biotinylated MLL1 peptide 1-46aa) (Homo sapiens, UniProt O00255).
T1 sequence (O00255 1-610): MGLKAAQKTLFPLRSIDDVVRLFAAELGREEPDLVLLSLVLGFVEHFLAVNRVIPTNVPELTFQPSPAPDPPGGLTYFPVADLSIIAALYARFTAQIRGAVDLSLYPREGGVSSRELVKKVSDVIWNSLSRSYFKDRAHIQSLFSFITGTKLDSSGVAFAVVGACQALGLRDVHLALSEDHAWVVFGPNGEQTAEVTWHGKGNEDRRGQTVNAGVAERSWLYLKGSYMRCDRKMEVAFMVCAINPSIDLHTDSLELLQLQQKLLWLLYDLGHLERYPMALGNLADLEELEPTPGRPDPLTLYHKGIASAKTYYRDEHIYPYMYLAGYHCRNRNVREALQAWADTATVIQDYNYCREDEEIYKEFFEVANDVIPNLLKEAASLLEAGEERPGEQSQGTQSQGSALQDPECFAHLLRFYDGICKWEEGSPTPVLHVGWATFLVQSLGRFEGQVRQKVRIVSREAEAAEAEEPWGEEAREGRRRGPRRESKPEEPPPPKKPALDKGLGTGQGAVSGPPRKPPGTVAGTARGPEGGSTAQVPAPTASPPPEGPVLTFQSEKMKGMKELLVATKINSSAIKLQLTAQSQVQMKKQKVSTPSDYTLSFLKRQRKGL
Kind of experiment: biochemical.
Settings: not given
With `COc1cc(-c2ccc(CN[C@H]3C[C@@H](O)[C@@H](N(C)c4ncnc5sc(CC(F)(F)F)cc45)C3)cc2)nnc1OC1CCCOC1` (mixture of isomers) [Example 108, (1R,2S,4R)-4-{[(4-{5-methoxy-6-[(oxan-3-yl)oxy]pyridazin-3-yl}phenyl)methyl]amino}-2-{methyl[6-(2,2,2-trifluoroethyl)thieno[2,3-d]pyrimidin-4-yl]amino}cyclopentan-1-ol hydrochloride], the IC50 amounted to 1.3 nM.
`COc1nc(N(C)[C@H]2C[C@@H](NCc3ccc(-c4cc(OC)c(Cl)nn4)cc3)C[C@H]2O)c2cc(CC(F)(F)F)sc2n1` [Example 90, (1R,2S,4R)-4-({[4-(6-chloro-5methoxypyridazin-3-yl)phenyl]methyl}amino)-2-{[2-methoxy-6-(2,2,2-trifluoroethyl)thieno[2,3-d]pyrimidin-4-yl](methyl)amino}cyclopentan1-ol hydrochloride] displayed an IC50 of 1.2 nM.
Take `COCCOc1nnc(-c2ccc(CN[C@H]3C[C@@H](O)[C@@H](N(C)c4nc(OC)nc5sc(CC(F)(F)F)cc45)C3)cc2)cc1OC` [Example 109, (1R,2S,4R)-4-[({4-[5-methoxy-6-(2-methoxyethoxy)pyridazin-3-yl]phenyl}methyl)amino]-2-{[2-methoxy-6-(2,2,2-trifluoroethyl)thieno[2,3-d]pyrimidin-4-yl](methyl)amino}cyclopentan-1-ol hydrochloride]: the half-maximal inhibitory concentration (IC50) was found to be 0.7 nM.
In the case of `COc1cncc(-c2ccc(CN[C@@H]3C[C@H](N(C)c4ncnc5sc(CC(F)(F)F)cc45)C[C@H]3O)cc2)c1` [Example 50, (1R,2R,4S)-2-({[4-(5-methoxypyridin-3-yl)phenyl]methyl}amino)-4-{methyl[6-(2,2,2-trifluoroethyl)thieno[2,3-d]pyrimidin-4-yl]amino}cyclopentan-1-ol hydrochloride], 9.7 nM corresponded to half-maximal inhibition (IC50).

The same experiment, now with this note: IC50, binding inhibitory activity between menin and MLL, AlphaLISA; 1 nM menin, 10 nM biotinylated MLL1 peptide.
In turn, `CNc1nc(N(C)[C@H]2C[C@@H](NCc3ccc(-c4cc(F)cc(OC)c4)cc3)C[C@H]2O)c2cc(CC(F)(F)F)sc2n1` [Example 75, (1R,2S,4R)-4-{[(3′-fluoro-5′-methoxy[1,1′-biphenyl]-4-yl)methyl}amino}-2-{methyl[2-(methylamino)-6-(2,2,2-trifluoroethyl)thieno[2,3-d]pyrimidin-4-yl]amino}cyclopentan-1ol hydrochloride] registered an IC50 of 17.2 nM.
For the compound `COc1cc(-c2ccc(CN[C@H]3C[C@@H](O)[C@@H](N(C)c4ncnc5sc(CC(F)(F)F)cc45)C3)cc2)nnc1C#N` [Example 99, 6-[4-({[(1R,3R,4S)-3-hydroxy-4-{methyl[6-(2,2,2-trifluoroethyl)thieno[2,3-d]pyrimidin-4-yl]amino}cyclopentyl]amino}methyl)phenyl]-4-methoxypyridazine-3-carbonitrile hydrochloride], the IC50 worked out at 1.1 nM.
Compound `COc1cc(-c2ccc(CN[C@H]3C[C@@H](O)[C@@H](N(C)c4ncnc5sc(CC(F)(F)F)cc45)C3)cc2)nnc1Oc1cccnc1` [Example 107, (1R,2S,4R)-4-{[(4-{5-methoxy-6-[(pyridin-3-yl)oxy]pyridazin-3-yl}phenyl)methyl]amino}-2-{methyl[6-(2,2,2-trifluoroethyl)thieno[2,3-d]pyrimidin-4-yl]amino}cyclopentan-1-ol hydrochloride] gave an IC50 of 1.3 nM. This IC50 and that of the compound before are within 1.5-fold of each other.
Take `COc1cc(-c2ccc(CN[C@H]3CC[C@@H](N(C)c4ncnc5sc(CC(F)(F)F)cc45)C3)cc2)nnc1OC` [Example 95, (1R,3S)-N^3-{[4-(5,6-dimethoxypyridazin-3-yl)phenyl]methyl}-N^1-methyl-N^1-[6-(2,2,2-(trifluoroethyl)thieno[2,3-d]pyrimidin-4-yl]cyclopentane-1,3-diamine hydrochloride]: the IC50 was found to be 1.2 nM.
The same measure, in the same setting: then `[2H]C([2H])([2H])N(c1ncc(-c2ccc(CN[C@H]3C[C@@H](O)[C@@H](N(C)c4ncnc5sc(CC(F)(F)F)cc45)C3)cc2)cc1OC)C([2H])([2H])[2H]` [Example 122, (1R,2S,4R)-4-({[4-(6-{bis[(^2H3)methyl]amino}-5-methoxypyridin-3-yl)phenyl]methyl}amino)-2-{methyl[6-(2,2,2-trifluoroethyl)thieno[2,3-d]pyrimidin-4-yl]amino}cyclopentan-1-ol], with 1.7 nM; and `COc1cc(-c2ccc(CN[C@H]3C[C@@H](O)[C@@H](N(C)c4ncncc4Oc4ccc(F)cc4C(=O)N(C(C)C)C(C)C)C3)cc2)nnc1OC` [Example 89, 2-[(4-{[(1S,2R,4R)-4({[4-(5,6-dimethoxypyridazin-3-yl)phenyl]methyl}amino)-2-hydroxycyclopentyl](methyl)amino}pyrimidin-5-yl)oxy]-5-fluoro-N,N-di(propan-2-yl)benzamide hydrochloride], with 5.6 nM.
`CN(c1ncnc2sc(CC(F)(F)F)cc12)[C@H]1C[C@@H](NCc2ccc(-c3cc(F)cc4c3cnn4S(C)(=O)=O)cc2)C[C@H]1O` [Example 85, (1R,2S,4R)-4-[({4-[6-fluoro-1-(methanesulfonyl)-1H-indazol-4-yl]phenyl}methyl)amino]-2-{methyl[6-(2,2,2-trifluoroethyl)thieno[2,3-d]pyrimidin-4-yl]amino}cyclopentan-1-ol hydrochloride] registered an IC50 of 4 nM. The IC50 values of the last two compounds are within 1.5-fold of each other.
For `CNc1nc(N(C)[C@H]2C[C@@H](NCc3ccc(-c4cccc(S(=O)(=O)N(C)C)c4)cc3)C[C@H]2O)c2cc(CC(F)(F)F)sc2n1` [Example 69, 4′-({[(1R,3R,4S)-3-hydroxy-4-{methyl[2-(methylamino)-6-(2,2,2-trifluoroethyl)thieno[2,3-d]pyrimidin-4-yl]amino}cyclopentyl]amino}methyl)-N,N-dimethyl[1,1′-biphenyl]-3-sulfonamide hydrochloride], the IC50 is 2.8 nM.
The same measure, in the same setting: the figure for `COc1cc(-c2ccc(CN[C@H]3C[C@@H](O)[C@@H](N(C)c4ncncc4Oc4ccc(F)cc4-c4ccnn4C(C)C)C3)cc2)nnc1OC` [Example 102, (1R,2S,4R)-4-({[4-(5,6-dimethoxypyridazin-3-yl)phenyl]methyl}amino)-2-[(5-{4-fluoro-2-[1-(propan-2-yl)-1H-pyrazol-5-yl]phenoxy}pyrimidin-4-yl)(methyl)amino]cyclopentan-1-ol hydrochloride] is 2.7 nM.
As to `COc1cc(-c2ccc(CN[C@H]3C[C@@H](O)[C@@H](N(C)c4ncncc4Oc4ccc(F)cc4-c4cncnc4C(C)C)C3)cc2)nnc1OC` [Example 100, (1R,2S,4R)-4-({[4-(5,6-dimethoxypyridazin-3-yl)phenyl]methyl}amino)-2-[(5-{4-fluoro-2-[4-(propan-2-yl)pyrimidin-5-yl]phenoxy}pyrimidin-4-yl)(methyl)amino]cyclopentan-1-ol hydrochloride], the IC50 came out at 2.5 nM.
`COc1nc(N(C)[C@H]2C[C@@H](NCc3ccc(-c4cc(OC)c(OC5CCN(S(C)(=O)=O)CC5)nn4)cc3)C[C@H]2O)c2cc(CC(F)(F)F)sc2n1` [Example 118, (1R,2S,4R)-4-({[4-(6-{[1-(methanesulfonyl)piperidin-4-yl]oxy}-5-methoxypyridazin-3-yl)phenyl]methyl}amino)-2-{[2-methoxy-6-(2,2,2-trifluoroethyl)thieno[2,3-d]pyrimidin-4-yl(methyl)amino}cyclopentan-1-ol hydrochloride] gave a concentration for half-maximal inhibition (IC50) of 1 nM.

Still in this experiment, the particulars now being: cell free IC50 (nM), 1 nM menin, 10 nM biotinylated MLL1 peptide, AlphaLISA.
For the compound `CN(c1ncnc2sc(CC(F)(F)F)cc12)[C@@H]1CC[C@H](NCc2ccc(-c3ccc(-c4ccc(Cl)nc4)nc3)cc2)C1` [Example 13, (1R,3S)—N^3-{[4-(6′-chloro[2,3′-bipyridine]-5-yl)phenyl]methyl}-N^1-methyl-N^1-[6-(2,2,2-trifluoroethyl)thieno[2,3-d]pyrimidin-4-yl]cyclopentane-1,3-diamine], half-maximal inhibition (IC50) was put at 7.6 nM.
Same read-out and setting: then `CN(c1ncnc2sc(CC(F)(F)F)cc12)[C@@H]1CC[C@H](NCc2ccc(-c3ccc(=O)[nH]c3)cc2)C1` [Example 11, 5-[4-({[(1S,3R)-3-{methyl[6-(2,2,2-trifluoroethyl)thieno[2,3-d]pyrimidin-4-yl]amino}cyclopentyl]amino}methyl)phenyl]pyridin-2(1H)-one Hydrochloride], with 63.9 nM; and `CN(c1ncnc2cc(CC(F)(F)F)sc12)[C@@H]1CC[C@H](NCc2ccc3[nH]c(C#N)cc3c2)C1` [Example 4, 5-({[(1S,3R)-3-{methyl[6-(2,2,2-trifluoroethyl)thieno[3,2-d]pyrimidin-4-yl]amino}cyclopentyl]amino}methyl)-1H-indole-2-carbonitrile], with 172 nM.
Regarding `CN(c1ncnc2sc(CC(F)(F)F)cc12)[C@@H]1CC[C@H](NCc2ccc(NCc3ccccc3)cc2)C1` [Example 7, (1R,3S)—N^3-{[4-(benzylamino)phenyl]methyl}-N^1-methyl-N^1-[6-(2,2,2-trifluoroethyl)thieno[2,3-d]pyrimidin-4-yl]cyclopentane-1,3-diamine Hydrochloride], the IC50 was determined as 151 nM.
Still for that read-out and setting: the figure for `COc1cncc(Nc2ccc(CN[C@H]3CC[C@@H](N(C)c4ncnc5sc(CC(F)(F)F)cc45)C3)cc2)c1` [Example 8, (1R,3S)—N^3-({4-[(5-methoxypyridin-3-yl)amino]phenyl}methyl)-N^1-methyl-N^1-[6-(2,2,2-trifluoroethyl)thieno[2,3-d]pyrimidin-4-yl]cyclopentane-1,3-diamine Hydrochloride] is 8.8 nM.
